Results published in the CheMixHub viscosity set.

Experiment: xn = mol fraction of the nth substance listed

CCCCCCCCCCCC + CCCCCC
Details | viscosity [mPa·s]
293.15 K, 100 kPa, x2 = 0.0986 | 1.294
293.15 K, 100 kPa, x2 = 0.2 | 1.18
293.15 K, 100 kPa, x2 = 0.2024 | 1.137
293.15 K, 100 kPa, x2 = 0.2991 | 1.003
293.15 K, 100 kPa, x2 = 0.4 | 0.89
293.15 K, 100 kPa, x2 = 0.4003 | 0.864
293.15 K, 100 kPa, x2 = 0.5036 | 0.746
293.15 K, 100 kPa, x2 = 0.6 | 0.67
293.15 K, 100 kPa, x2 = 0.6025 | 0.635
293.15 K, 100 kPa, x2 = 0.7016 | 0.538
293.15 K, 100 kPa, x2 = 0.8 | 0.47
293.15 K, 100 kPa, x2 = 0.8003 | 0.453
293.15 K, 100 kPa, x2 = 0.899 | 0.382
298.1 K, 100 kPa, x2 = 0.5 | 0.719
298.15 K, 100 kPa, x2 = 0.0986 | 1.188
298.15 K, 100 kPa, x2 = 0.2024 | 1.049
298.15 K, 100 kPa, x2 = 0.2991 | 0.929
298.15 K, 100 kPa, x2 = 0.4003 | 0.803
298.15 K, 100 kPa, x2 = 0.5036 | 0.697
298.15 K, 100 kPa, x2 = 0.6025 | 0.596
298.15 K, 100 kPa, x2 = 0.7016 | 0.508
298.15 K, 100 kPa, x2 = 0.8003 | 0.429
298.15 K, 100 kPa, x2 = 0.899 | 0.363
298.15 K, 101 kPa, x1 = 0.1924 | 0.4343
298.15 K, 101 kPa, x1 = 0.4248 | 0.6351
298.15 K, 101 kPa, x1 = 0.605 | 0.8243
298.15 K, 101 kPa, x1 = 0.8064 | 1.067
298.15 K, 101.33 kPa, x1 = 0.0232 | 0.3154
298.15 K, 101.33 kPa, x1 = 0.0783 | 0.3506
298.15 K, 101.33 kPa, x1 = 0.1615 | 0.4067
298.15 K, 101.33 kPa, x1 = 0.1736 | 0.4183
298.15 K, 101.33 kPa, x1 = 0.3209 | 0.5387
298.15 K, 101.33 kPa, x1 = 0.411 | 0.6213
298.15 K, 101.33 kPa, x1 = 0.6005 | 0.8244
298.15 K, 101.33 kPa, x1 = 0.6932 | 0.9294
298.15 K, 101.33 kPa, x1 = 0.8557 | 1.137
298.15 K, 101.33 kPa, x1 = 0.9271 | 1.241
298.15 K, 101.33 kPa, x2 = 0.1128 | 1.196
298.15 K, 101.33 kPa, x2 = 0.2137 | 1.047
298.15 K, 101.33 kPa, x2 = 0.3024 | 0.9328
298.15 K, 101.33 kPa, x2 = 0.4043 | 0.8164
298.15 K, 101.33 kPa, x2 = 0.5067 | 0.7076
298.15 K, 101.33 kPa, x2 = 0.6062 | 0.6105
298.15 K, 101.33 kPa, x2 = 0.7222 | 0.5009
298.15 K, 101.33 kPa, x2 = 0.8039 | 0.4331
298.15 K, 101.33 kPa, x2 = 0.9037 | 0.3631
298.27 K, 101.3 kPa, x1 = 0.4998 | 0.7168
298.47 K, 101.3 kPa, x1 = 0.2499 | 0.4774
298.47 K, 101.3 kPa, x1 = 0.7481 | 1.002
303.15 K, 100 kPa, x2 = 0.0986 | 1.095
303.15 K, 100 kPa, x2 = 0.2024 | 0.971
303.15 K, 100 kPa, x2 = 0.2991 | 0.864
303.15 K, 100 kPa, x2 = 0.4003 | 0.75
303.15 K, 100 kPa, x2 = 0.5036 | 0.653
303.15 K, 100 kPa, x2 = 0.6025 | 0.561
303.15 K, 100 kPa, x2 = 0.7016 | 0.479
303.15 K, 100 kPa, x2 = 0.8003 | 0.407
303.15 K, 100 kPa, x2 = 0.899 | 0.352
303.57 K, 101.3 kPa, x1 = 0.7481 | 0.9319
303.58 K, 101.3 kPa, x1 = 0.2499 | 0.4512
308.12 K, 101.3 kPa, x1 = 0.7481 | 0.8716
308.15 K, 100 kPa, x2 = 0.0986 | 1.013
308.15 K, 100 kPa, x2 = 0.2024 | 0.902
308.15 K, 100 kPa, x2 = 0.2991 | 0.805
308.15 K, 100 kPa, x2 = 0.4003 | 0.702
308.15 K, 100 kPa, x2 = 0.5036 | 0.613
308.15 K, 100 kPa, x2 = 0.6025 | 0.529
308.15 K, 100 kPa, x2 = 0.7016 | 0.453
308.15 K, 100 kPa, x2 = 0.8003 | 0.388
308.15 K, 100 kPa, x2 = 0.899 | 0.334
308.15 K, 101.33 kPa, x1 = 0.0232 | 0.2875
308.15 K, 101.33 kPa, x1 = 0.0783 | 0.3133
308.15 K, 101.33 kPa, x1 = 0.1615 | 0.3656
308.15 K, 101.33 kPa, x1 = 0.1736 | 0.3742
308.15 K, 101.33 kPa, x1 = 0.3209 | 0.4799
308.15 K, 101.33 kPa, x1 = 0.411 | 0.5504
308.15 K, 101.33 kPa, x1 = 0.6005 | 0.7191
308.15 K, 101.33 kPa, x1 = 0.8557 | 0.9709
308.15 K, 101.33 kPa, x1 = 0.9271 | 1.054
308.18 K, 101.3 kPa, x1 = 0.4998 | 0.6313
308.23 K, 101.3 kPa, x1 = 0.2499 | 0.4292
311.42 K, 101.3 kPa, x1 = 0.2499 | 0.4144
313.15 K, 100 kPa, x2 = 0.0986 | 0.941
313.15 K, 100 kPa, x2 = 0.2 | 0.87
313.15 K, 100 kPa, x2 = 0.2024 | 0.841
313.15 K, 100 kPa, x2 = 0.2991 | 0.753
313.15 K, 100 kPa, x2 = 0.4 | 0.69
313.15 K, 100 kPa, x2 = 0.4003 | 0.658
313.15 K, 100 kPa, x2 = 0.5036 | 0.578
313.15 K, 100 kPa, x2 = 0.6 | 0.53
313.15 K, 100 kPa, x2 = 0.6025 | 0.5
313.15 K, 100 kPa, x2 = 0.7016 | 0.43
313.15 K, 100 kPa, x2 = 0.8 | 0.38
313.15 K, 100 kPa, x2 = 0.8003 | 0.37
313.15 K, 100 kPa, x2 = 0.899 | 0.317
318.15 K, 100 kPa, x2 = 0.0986 | 0.876
318.15 K, 100 kPa, x2 = 0.2024 | 0.786
318.15 K, 100 kPa, x2 = 0.2991 | 0.706
318.15 K, 100 kPa, x2 = 0.4003 | 0.619
318.15 K, 100 kPa, x2 = 0.5036 | 0.545
318.15 K, 100 kPa, x2 = 0.6025 | 0.474
318.15 K, 100 kPa, x2 = 0.7016 | 0.409
318.15 K, 100 kPa, x2 = 0.8003 | 0.359
318.15 K, 100 kPa, x2 = 0.899 | 0.302
322.68 K, 101.3 kPa, x1 = 0.4998 | 0.5301
323.08 K, 101.3 kPa, x1 = 0.2499 | 0.3672
323.15 K, 100 kPa, x2 = 0.0986 | 0.819
323.15 K, 100 kPa, x2 = 0.2024 | 0.736
323.15 K, 100 kPa, x2 = 0.2991 | 0.663
323.15 K, 100 kPa, x2 = 0.4003 | 0.584
323.15 K, 100 kPa, x2 = 0.5036 | 0.515
323.15 K, 100 kPa, x2 = 0.6025 | 0.45
323.15 K, 100 kPa, x2 = 0.7016 | 0.389
323.15 K, 100 kPa, x2 = 0.8003 | 0.342
323.15 K, 100 kPa, x2 = 0.899 | 0.287

OCCOCCOCCO + CN(C)C=O
viscosity [mPa·s], 101 kPa
Details | 293.15 K | 298.15 K | 303.15 K | 308.15 K | 313.15 K | 318.15 K
x1 = 0.025 | 1 | 0.933 | 0.868 | 0.847 | 0.768 | 0.727
x1 = 0.0513 | 1.15 | 1.07 | 0.987 | 0.952 | 0.876 | 0.815
x1 = 0.0791 | 1.33 | 1.24 | 1.13 | 1.08 | 0.997 | 0.921
x1 = 0.1085 | 1.54 | 1.42 | 1.31 | 1.22 | 1.15 | 1.05
x1 = 0.1396 | 1.81 | 1.68 | 1.51 | 1.39 | 1.32 | 1.21
x1 = 0.1726 | 2.12 | 1.95 | 1.76 | 1.6 | 1.52 | –
x1 = 0.2077 | 2.53 | 2.3 | 2.07 | 1.85 | 1.76 | –
x1 = 0.245 | 3.02 | 2.74 | 2.44 | 2.16 | 2.06 | –
x1 = 0.2848 | 3.64 | 3.27 | 2.88 | 2.53 | 2.41 | –
x1 = 0.3274 | 4.45 | 3.93 | 3.45 | 3 | 2.85 | –
x1 = 0.373 | 5.37 | 4.74 | 4.12 | 3.55 | 3.33 | –
x1 = 0.422 | 6.64 | 5.77 | 4.96 | 4.25 | 3.96 | –
x1 = 0.4748 | 8.33 | 7.17 | 6.09 | 5.12 | 4.79 | –
x1 = 0.5318 | 10.3 | 8.94 | 7.5 | 6.17 | 5.77 | –
x1 = 0.5935 | 12.9 | 10.9 | 9.08 | 7.6 | 6.92 | –
x1 = 0.6607 | 16.5 | 13.7 | 11.3 | 9.37 | 8.38 | –
x1 = 0.7339 | 21.2 | 17.4 | 14.2 | 11.6 | 10.3 | –
x1 = 0.8141 | 27.4 | 22.2 | 17.9 | 14.4 | 12.8 | –
x1 = 0.9024 | 35.5 | 28.6 | 22.7 | 17.6 | 15.8 | –
